Measured values as given in patent publication US7279473B2, “Pyrazolopyridazine derivatives” (SmithKline Beecham Corporation, priority 2001, dated 2007).

How the values were obtained:
[1] = test system: chemotherapy-induced alopecia; test: Neonatal rat model of chemotherapy-induced alopecia; type: in vivo, Sprague Dawley rats; conditions: compounds in 100% DMSO applied topically to the scalp prior to chemotherapy; scored at day 21
From the text: Animal Model for Chemoprotection
Neonatal rat model of chemotherapy-induced alopecia: Time-pregnant female Sprague Dawley rats were purchased from Charles River Breeding Laboratories. Rat pups born on the same day were randomized at birth to 15 or 16 pups/mom/cage and were housed with moms during the study period. Each experimental group consisted of either 5 or 8 rats. For the etoposide model of CIA, rat pups received etoposide (VePesid, Bristol Laboratories Oncology Products, Princeton, N.J.) 6 mg/kg, ip, at 13 days of age (23). […] Compounds were formulated in 100% DMSO and applied topically to the scalp, 50 μL per application. Pups were treated with two topical applications of compounds 10 hours and 4 hours (t=−10, −4 hours) on both days 12 and 13 prior to chemotherapy administration. Pups were separated from mom during the topical application dosing period to prevent grooming and removal of compound. […] Inhibitor efficacy data was analyzed by comparing the % of drug-treated responders and the % of vehicle-treated responders. The amount of hair present on rat scalp at day 21 were scored and averaged for each inhibitor treated rat and ranked as +, ++ and +++.

[2] = molecular target: CDK2 (Homo sapiens, UniProt P24941); test: CDK2 substrate phosphorylation assay (biotinylated peptide, [g-32P]ATP); type: biochemical; conditions: read-out: CDK2 inhibition
Procedure: CDK2 was expressed utilizing a baculovirus expression system and was partially purified to comprise 20-80% of total protein, with no detectable competing reactions present. […] The buffer employed in enzyme assay was 100 mM HEPES pH 7.5 containing 0.1 mg/mL BSA and 5% DMSO. Inhibitors were diluted in 100% DMSO prior to addition into the assay. Detection of peptide phosphorylation was accomplished by scintillation counting following either collection of peptide onto phosphocellulose filters (for reactions stopped with acetic acid), collection of peptide in wells of 96 well plates coated with Streptavidin (Pierce) (reactions were stopped with EDTA), or addition of Avidin coated Scintillant impregnated beads (Scintillation Proximity Assays from Amersham, reactions were stopped with EDTA). […] Radioactivity was determined by liquid scintillation counting.

[3] = molecular target: Cyclin D1 and cyclin-dependent kinase 4 (CDK4) (Homo sapiens, UniProt P11802); test: CDK4 substrate phosphorylation assay (phosphorylation of GST-Rb protein, [33P]-ATP); type: biochemical; conditions: read-out: CDK4 inhibition
Cyclin D1 and cyclin-dependent kinase 4 (CDK4), sequence (P11802 whole entry, species assumed): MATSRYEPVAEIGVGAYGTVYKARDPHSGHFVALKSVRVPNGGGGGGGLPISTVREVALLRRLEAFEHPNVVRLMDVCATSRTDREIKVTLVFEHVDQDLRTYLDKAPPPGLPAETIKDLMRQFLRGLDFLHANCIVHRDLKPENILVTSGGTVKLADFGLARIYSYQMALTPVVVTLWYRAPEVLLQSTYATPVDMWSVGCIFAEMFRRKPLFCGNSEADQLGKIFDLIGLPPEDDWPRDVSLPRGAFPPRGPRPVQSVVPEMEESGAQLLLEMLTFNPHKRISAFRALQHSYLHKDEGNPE
Cyclin D1 and cyclin-dependent kinase 4 (CDK4), sequence (P24385 whole entry partner, species assumed): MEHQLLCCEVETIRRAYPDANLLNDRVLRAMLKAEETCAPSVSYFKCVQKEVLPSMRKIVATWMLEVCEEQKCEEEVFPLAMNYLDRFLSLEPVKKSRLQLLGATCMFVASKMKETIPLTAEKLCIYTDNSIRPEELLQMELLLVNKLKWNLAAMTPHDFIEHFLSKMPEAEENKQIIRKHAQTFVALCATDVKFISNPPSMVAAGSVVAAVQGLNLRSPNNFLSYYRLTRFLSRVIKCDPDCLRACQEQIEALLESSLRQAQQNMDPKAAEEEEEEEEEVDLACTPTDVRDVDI
Procedure: The compounds of the present invention have valuable pharmacologic properties. Different compounds from this class are particularly effective at inhibiting CDK2 and/or CDK4 enzymes at concentrations, which range from 0.0001 to 1 μM and additionally show specificity relative to other kinases. Substrate phosphorylation assays were carried out as follows.
Cyclin D1 and cyclin-dependent kinase 4 were expressed utilizing a baculovirus expression system. The catalytic activity of CDK4 protein was assayed by measuring the phosphorylation of Rb protein. A truncated Rb protein (residues 773-928 of the native retinoblastoma protein, fused to glutathione S-transferase to facilitate purification) was used as the phosphoryl acceptor. The assay conditions were 100 mM HEPES (N-[2-hydroxyethyl]piperzine-N′-[2-ethanesulfonic acid]), pH 7.5, 0.5 μM GST-Rb protein, 1 μCi/mL [^33P]-ATP (1 nM-20 μM), 5-20 mM MgCl2, 2.5 mM EDTA, 1 mM dithiothreitol, 0.2 mg/mL bovine serum albumin, 2% (v/v) dimethyl sulfoxide (DMSO), CDK4 enzyme (5-50 nM) in a final volume of 50 μL Reactions were incubated for time periods of 10-60 min at 30° C. and terminated by the addition of 50 μL quench (1 mM ATP/100 mM EDTA, pH 7.0). Detection of protein phosphorylation was accomplished by scintillation counting following collection of protein in 96 well plates coated with Glutathione or trapping of protein onto phosphocellulose filters. Counts detected by these methodologies minus the appropriate background were assumed to be proportional to the reaction initial rates. […] IC50s were determined by a least squares fit to the equation CPM=Vmax*(1-([I]/(K+[I])))+nsb, or pIC50s were determined by a fit to the equation CPM=nsb+(Vmax−nsb)/(1+(x/10^x−pIC50)), where nsb are the background counts.

| Compound | Rank (amount of hair present on rat scalp at day 21) [1] | IC50 [2] [nM] | IC50 [3] [nM] |
| --- | --- | --- | --- |
| COc1cc(Nc2nccc(-c3cnn4ncccc34)n2)cc(C(F)(F)F)c1 [Example 57] | + |  |  |
| CN1CCN(c2ccc(Nc3nccc(-c4cnn5ncccc45)n3)cc2Cl)CC1 [Example 23, N-[3-Chloro-4-(4-methyl-1-piperazinyl)phenyl]-4-pyrazolo[1,5-b]pyridazin-3-yl-2-pyrimidinamine] | +++ | < 100 | < 100 |
| O=C1CCCN1CCCNc1nccc(-c2cnn3ncccc23)n1 [Example 22, 1-{3-[(Pyrazolo[1,5-b]pyridazin-3-yl-2-pyrimidinyl)amino]propyl}-2-pyrrolidinone] |  | < 100 | < 100 |
| NS(=O)(=O)c1ccc(Nc2nccc(-c3cnn4ncccc34)n2)cc1 [Example 62, N-(4-aminosulfonylphenyl)-4-pyrazolo[1,5-b]pyridazin-3-yl-2-pyrimidinamine] |  | < 100 |  |
| Clc1ccccc1-c1ccc2c(-c3ccnc(NC4CC4)n3)cnn2n1 [Example 42, 4-[6-(2-Chlorophenyl)pyrazolo[1,5-b]pyridazin-3-yl]-N-cyclopropyl-2-pyrimidinamine] |  | < 1000 | < 1000 |
| Clc1ccc(Nc2nccc(-c3cnn4ncccc34)n2)cc1 [Example 5, N-(4-Chlorophenyl)pyrazolo[1,5-b]pyridazin-3-yl-2-pyrimidinamine] |  | < 100 | < 100 |
| O=[N+]([O-])c1cccc(Nc2nccc(-c3cnn4ncccc34)n2)c1 [Example 10, N-(3-Nitrophenyl)-4-pyrazolo[1,5-b]pyridazin-3-yl-2-pyrimidinamine] |  | < 100 | < 100 |
| c1cc(Nc2nccc(-c3cnn4ncccc34)n2)cc(-c2cnco2)c1 [Example 14, N-[3-(1,3-Oxazol-5-yl)phenyl]-4-pyrazolo[1,5-b]pyridazin-3-yl-2-pyrimidinamine] | + | < 100 | < 100 |
| Cc1cc(Nc2nccc(-c3cnn4ncccc34)n2)ccc1N1CCN(C)CC1 [Example 25, N-[3-Methyl-4-(4-methyl-1-piperazinyl)phenyl]-4-pyrazolo[1,5-b]pyridazin-3-yl-2-pyrimidinamine] |  | < 100 | < 100 |
| FC(F)(F)c1cccc(Nc2nccc(-c3cnn4ncccc34)n2)c1 [Example 9, 4-Pyrazolo[1,5-b]pyridazin-3-yl-N-[3-(trifluoromethyl)phenyl]-2-pyrimidinamine] | ++ | < 100 | < 100 |
| c1cnn2ncc(-c3ccnc(NC4CC4)n3)c2c1 [Example 1, N-Cyclopropyl-4-pyrazolo[1,5-b]pyridazin-3-yl-2-pyrimidinamine] |  |  | < 100 |
| CN(C)c1ccc(Nc2nccc(-c3cnn4nc(N5CCOCC5)ccc34)n2)cc1 [Example 53, N-^1-N^1-Dimethly-N^4-{4-[6-(4-morpholinyl)pyrazolo[1,5-b]pyridazin-3-yl]-2-pyrimidinyl}-1,4-benzenediamine] |  | < 1000 | < 100 |
| COc1ccc2c(-c3ccnc(NC4CC4)n3)cnn2n1 [Example 36, N-Cyclopropyl-4-(6-methoxypyrazolo[1,5-b]pyridazin-3-yl)-2-pyrimidinamine] |  | < 1000 | < 1000 |
| N#Cc1cccc(Nc2nccc(-c3cnn4ncccc34)n2)c1 [Example 7, 3-[(4-Pyrazolo[1,5-b]pyridazin-3-yl-2-pyrimidinyl)amino]benzonitrile] | +++ | < 100 | < 100 |
